Laboratory results as given in PubChem BioAssay AID328 (DTP/NCI, 2004).
Several values for one entry are separate records, joined by “and”; a condition that tells them apart may be missing. Equal values may be shown once. Toxic doses and inconclusive results are not listed. The calls were made as follows: active = survival T/C of 150% or more; inactive = T/C below 125% in these data.

System: BDF1 mice, P388 leukemia ip, median survival T/C
Assay: NCI In Vivo Anticancer Drug Screen. Data for tumor model P388 Leukemia (intraperitoneal) in B6D2F1 (BDF1) mice
Settings: endpoint: median survival time, higher = longer survival
Method in brief: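 Survival ratio, drug arm over vehicle arm, in mice with a transplanted tumour.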

[1] = dose: 50.0 mg/kg/injection, schedule: Q01DX009 (ip), vehicle: saline with Tween-80
[2] = dose: 50.0 mg/kg/injection, schedule: Q04DX003 (ip), vehicle: saline with Tween-80
[3] = dose: 100.0 mg/kg/injection, schedule: Q01DX009 (ip), vehicle: saline with Tween-80
[4] = dose: 100.0 mg/kg/injection, schedule: Q04DX003 (ip), vehicle: saline with Tween-80
[5] = dose: 200.0 mg/kg/injection, schedule: Q01DX009 (ip), vehicle: saline with Tween-80
[6] = dose: 200.0 mg/kg/injection, schedule: Q04DX003 (ip), vehicle: saline with Tween-80
[7] = dose: 400.0 mg/kg/injection, schedule: Q01DX009 (ip), vehicle: saline with Tween-80
[8] = dose: 50.0 mg/kg/injection, schedule: Q04DX003 (ip), vehicle: Klucel (hydroxypropylcellulose) (HPC)
[9] = dose: 100.0 mg/kg/injection, schedule: Q04DX003 (ip), vehicle: Klucel (hydroxypropylcellulose) (HPC)
[10] = dose: 200.0 mg/kg/injection, schedule: Q04DX003 (ip), vehicle: Klucel (hydroxypropylcellulose) (HPC)
[11] = dose: 25.0 mg/kg/injection, schedule: Q01DX009 (ip), vehicle: saline with Tween-80
[12] = dose: 100.0 mg/kg/injection, schedule: Q01DX009 (ip), vehicle: Klucel (hydroxypropylcellulose) (HPC)
[13] = dose: 100.0 mg/kg/injection, schedule: Q04DX003 (ip), vehicle: saline sonified
[14] = dose: 200.0 mg/kg/injection, schedule: Q04DX003 (ip), vehicle: saline sonified
[15] = dose: 400.0 mg/kg/injection, schedule: Q04DX003 (ip), vehicle: saline sonified

Measured: T/C

CCOC(=O)c1cnc2ccc(OC)cc2c1Cl
inactive: [1] 95 % of control | [2] 91 % of control | [3] 111 % of control | [4] 103 % of control | [5] 99 % of control | [6] 103 % of control | [7] 96 % of control | dose: 400.0 mg/kg/injection, schedule: Q04DX003 (ip), vehicle: saline with Tween-80 95 % of control

COC(OC)c1[nH]c(=S)[nH]c(=O)c1Cc1cc(C)ccc1C
inactive: [8] 95 % of control | dose: 100.0 mg/kg/injection, schedule: Q01DX001 (ip), vehicle: Klucel (hydroxypropylcellulose) (HPC) 104 % of control | [9] 100 % of control | dose: 200.0 mg/kg/injection, schedule: Q01DX001 (ip), vehicle: Klucel (hydroxypropylcellulose) (HPC) 104 % of control | [10] 95 % of control | dose: 400.0 mg/kg/injection, schedule: Q01DX001 (ip), vehicle: Klucel (hydroxypropylcellulose) (HPC) 109 % of control

CCN1/C(=C/C(C)=C/c2sc3ccccc3[n+]2CC)Sc2ccccc21
inactive: dose: 25.0 micrograms/kg/injection, schedule: Q01DX009 (ip), vehicle: Klucel (hydroxypropylcellulose) (HPC) 116 % of control | dose: 50.0 micrograms/kg/injection, schedule: Q01DX009 (ip), vehicle: Klucel (hydroxypropylcellulose) (HPC) 109 % of control and 120 % of control | dose: 100.0 micrograms/kg/injection, schedule: Q01DX009 (ip), vehicle: Klucel (hydroxypropylcellulose) (HPC) 106 % of control and 108 % of control | dose: 200.0 micrograms/kg/injection, schedule: Q01DX009 (ip), vehicle: Klucel (hydroxypropylcellulose) (HPC) 97 % of control | dose: 400.0 micrograms/kg/injection, schedule: Q01DX009 (ip), vehicle: Klucel (hydroxypropylcellulose) (HPC) 106 % of control

CCC/[N+]([O-])=C/c1ccc([N+](=O)[O-])o1
inactive: [11] 101 % of control | [1] 105 % of control | [3] 115 % of control

CCN(C(=O)C(F)(F)F)C(C)(C)C(SSSC(c1ccc(Cl)cc1)C(C)(C)N(CC)C(=O)C(F)(F)F)c1ccc(Cl)cc1 (stereo not drawn)
inactive: dose: 22.0 mg/kg/injection, schedule: Q01DX009 (ip), vehicle: Klucel (hydroxypropylcellulose) (HPC) 115 % of control | dose: 33.0 mg/kg/injection, schedule: Q01DX009 (ip), vehicle: Klucel (hydroxypropylcellulose) (HPC) 115 % of control | dose: 50.0 mg/kg/injection, schedule: Q01DX009 (ip), vehicle: Klucel (hydroxypropylcellulose) (HPC) 120 % of control | dose: 75.0 mg/kg/injection, schedule: Q01DX009 (ip), vehicle: Klucel (hydroxypropylcellulose) (HPC) 120 % of control | [12] 100 % of control | [9] 112 % of control | [10] 116 % of control

CC1(C)C2=CCCC3(OCCO3)C2(C)CCC1O (stereo not drawn)
inactive: [3] 100 % of control | [5] 100 % of control | [7] 90 % of control

COc1ccc(NC2=CC(=O)C(=O)C=C2Nc2ccc(OC)cc2)cc1
inactive: dose: 15.0 mg/kg/injection, schedule: Q01DX009 (ip), vehicle: saline with Tween-80 93 % of control | dose: 30.0 mg/kg/injection, schedule: Q01DX009 (ip), vehicle: saline with Tween-80 93 % of control | dose: 60.0 mg/kg/injection, schedule: Q01DX009 (ip), vehicle: saline with Tween-80 91 % of control

CN1CCN(C2CCCCc3ccccc32)CC1 (stereo not drawn)
inactive: dose: 25.0 mg/kg/injection, schedule: Q04DX003 (ip), vehicle: saline with Tween-80 104 % of control | [2] 113 % of control | [4] 109 % of control

S=c1[nH]nc2ccccn12
inactive: [1] 102 % of control | [3] 100 % of control | [5] 102 % of control

Cn1nc(NC(=O)C(F)(F)F)c2ncc(-c3ccccc3)nc21
inactive: [2] 105 % of control | [4] 100 % of control | [6] 100 % of control

COc1ccc(-c2oc3cc(O)c(OC)c(O)c3c(=O)c2OC)cc1O
inactive: dose: 10.0 mg/kg/injection, schedule: Q01DX010 (ip), vehicle: saline 100 % of control | dose: 20.0 mg/kg/injection, schedule: Q01DX010 (ip), vehicle: saline 100 % of control | dose: 40.0 mg/kg/injection, schedule: Q01DX010 (ip), vehicle: saline 113 % of control

O=CC1(C(O)C2SCCCS2)SCCCS1 (stereo not drawn)
inactive: dose: 12.5 mg/kg/injection, schedule: Q01DX001 (ip), vehicle: other 95 % of control | dose: 25.0 mg/kg/injection, schedule: Q01DX001 (ip), vehicle: other 104 % of control | dose: 50.0 mg/kg/injection, schedule: Q01DX001 (ip), vehicle: other 109 % of control

NC(N)=N/N=C/C=N/N=C(N)N
inactive: dose: 100.0 mg/kg/injection, schedule: Q04DX003 (ip), vehicle: saline 100 % of control

O=[N+]([O-])c1ccc2nccc(Cl)c2c1
inactive: dose: 25.0 mg/kg/injection, schedule: Q04DX003 (ip), vehicle: Klucel (hydroxypropylcellulose) (HPC) 100 % of control | [8] 95 % of control

CC1CC(C)(C)N=C(CC(C)(O)c2ccccn2)O1 (stereo not drawn)
inactive: dose: 100.0 mg/kg/injection, schedule: Q01DX001 (ip), vehicle: saline sonified 100 % of control | dose: 200.0 mg/kg/injection, schedule: Q01DX001 (ip), vehicle: saline sonified 90 % of control | dose: 400.0 mg/kg/injection, schedule: Q01DX001 (ip), vehicle: saline sonified 100 % of control

CSc1ncc(CO)c(N)n1
inactive: [12] 91 % of control | dose: 200.0 mg/kg/injection, schedule: Q01DX009 (ip), vehicle: Klucel (hydroxypropylcellulose) (HPC) 95 % of control | dose: 400.0 mg/kg/injection, schedule: Q01DX009 (ip), vehicle: Klucel (hydroxypropylcellulose) (HPC) 87 % of control

O=[As]c1ccc(Br)cc1 (stereo not drawn)
inactive: dose: 0.5 mg/kg/injection, schedule: Q01DX009 (ip), vehicle: Klucel (hydroxypropylcellulose) (HPC) 104 % of control | dose: 1.0 mg/kg/injection, schedule: Q01DX009 (ip), vehicle: Klucel (hydroxypropylcellulose) (HPC) 104 % of control | dose: 2.0 mg/kg/injection, schedule: Q01DX009 (ip), vehicle: Klucel (hydroxypropylcellulose) (HPC) 104 % of control

CC(=O)[O][Pb]([CH2]C(C)C)([CH2]C(C)C)[CH2]C(C)C
inactive: dose: 0.75 mg/kg/injection, schedule: Q01DX009 (ip), vehicle: Klucel (hydroxypropylcellulose) (HPC) 107 % of control | dose: 1.5 mg/kg/injection, schedule: Q01DX009 (ip), vehicle: Klucel (hydroxypropylcellulose) (HPC) 109 % of control | dose: 3.0 mg/kg/injection, schedule: Q01DX009 (ip), vehicle: Klucel (hydroxypropylcellulose) (HPC) 105 % of control | dose: 6.0 mg/kg/injection, schedule: Q01DX009 (ip), vehicle: Klucel (hydroxypropylcellulose) (HPC) 107 % of control | dose: 12.0 mg/kg/injection, schedule: Q01DX009 (ip), vehicle: Klucel (hydroxypropylcellulose) (HPC) 107 % of control

C[C@]12CCC(=O)C(O)=C1CC[C@@H]1[C@@H]2CC[C@@]2(C)[C@H]1CC[C@]2(C)O
inactive: dose: 66.0 mg/kg/injection, schedule: Q01DX009 (ip), vehicle: saline with Tween-80 104 % of control | [3] 95 % of control | dose: 150.0 mg/kg/injection, schedule: Q01DX009 (ip), vehicle: saline with Tween-80 95 % of control | dose: 200.0 mg/kg/injection, schedule: Q01DX009 (ip), vehicle: saline sonified 90 % of control | dose: 400.0 mg/kg/injection, schedule: Q01DX009 (ip), vehicle: saline sonified 90 % of control

O=C(O)c1ccccc1CBr
inactive: [13] 104 % of control | [14] 104 % of control | [15] 100 % of control

CN(/N=N/N(C)c1ccccc1)c1ccccc1
inactive: [13] 110 % of control | [5] 120 % of control | [14] 110 % of control | [7] 110 % of control | [15] 100 % of control

CCSC1(SCC)C(=O)OC2=C(CCCCCC2)C1N(C)C (stereo not drawn)
inactive: [1] 96 % of control | [3] 99 % of control | [5] 99 % of control

CCOC(=O)c1cnc2ccc3ccccc3n2c1=O
inactive: dose: 50.0 mg/kg/injection, schedule: Q04DX002 (ip), vehicle: saline with Tween-80 101 % of control | dose: 100.0 mg/kg/injection, schedule: Q04DX002 (ip), vehicle: saline with Tween-80 101 % of control | dose: 200.0 mg/kg/injection, schedule: Q04DX002 (ip), vehicle: saline with Tween-80 93 % of control

O=C(NCCBr)Nc1ccccc1C(F)(F)F
inactive: [9] 95 % of control | [10] 109 % of control | dose: 400.0 mg/kg/injection, schedule: Q04DX003 (ip), vehicle: Klucel (hydroxypropylcellulose) (HPC) 109 % of control

COc1ccc(/C=C(/C#N)c2ccccc2)cc1
inactive: [11] 93 % of control | [1] 97 % of control | [3] 103 % of control | [5] 111 % of control
